Results reported in US6600091B1, “Enzymes responsible for the metabolism of zeatin” (The State of Oregon acting by and through the State Board …, priority 1998, dated 2003).

What was measured:
[1] = biological target: T1, Recombinant Zeatin O-glucosyltransferase (Phaseolus lunatus, UniProt Q9ZSK5); experiment: Cytokinin conversion assay with recombinant zeatin O-glucosyltransferase (14C-cytokinin + glycosyl donor, products separated by HPLC); assay type: biochemical, Phaseolous lunatus
T1 construct: the polypeptide encoded by the ORF plus the 5′ untranslated region and the α-peptide from the cloning vector; alpha-peptide encoded by the cloning vector (33 amino acids, pZL1/ZipLox); made in house; host or cells: E. coli BL21(DE3) pLysS
T1 sequence (Q9ZSK5 1-459): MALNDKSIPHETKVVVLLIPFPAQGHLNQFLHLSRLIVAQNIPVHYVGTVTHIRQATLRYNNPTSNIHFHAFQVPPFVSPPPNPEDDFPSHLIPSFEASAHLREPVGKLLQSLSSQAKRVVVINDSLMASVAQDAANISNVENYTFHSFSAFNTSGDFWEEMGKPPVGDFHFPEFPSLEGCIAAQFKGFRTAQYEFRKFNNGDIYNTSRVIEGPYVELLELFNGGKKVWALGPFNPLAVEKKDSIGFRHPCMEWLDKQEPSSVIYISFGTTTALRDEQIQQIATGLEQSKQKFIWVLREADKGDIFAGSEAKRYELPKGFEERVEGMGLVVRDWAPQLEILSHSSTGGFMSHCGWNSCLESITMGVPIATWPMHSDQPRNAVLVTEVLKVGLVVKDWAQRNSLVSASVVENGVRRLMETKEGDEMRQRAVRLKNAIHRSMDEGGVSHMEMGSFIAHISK
Protocol: Isolation of recombinant zeatin O-glucosyltransferase proteins. To obtain recombinant proteins, purified plasmids were transformed into Epicurian Coli BL21(DE3) pLysS Competent cells (Stratagene, LaJolla, Calif.) following the recommended protocol. Colonies were selected on AMP-LB plates. An individual colony was grown overnight in SOC-AMP media and 0.5 ml of the culture was used to inoculate 50 mls of SOC-AMP media. […] After 4 hours cells were collected and frozen at −80° C. overnight. Cells were lysed the next day by thawing and resuspending in 0.5 ml of 0.2 M Tris pH 7.5 containing 1 mg/ml of lysozyme. DNAase (1 μg/10 μl sample) was added after a 10-min. cycle of freeze-thaw at −80° C. Soluble proteins were collected after centrifugation. Recombinant proteins were further purified on a DEAE anion exchange column using the Bio-Rad Biologic liquid chromatography system.
(§1) Assay for cytokinin conversion activity and analysis of reaction products. […] Briefly, ^14C-labeled cytokinins (specific activity of 24 mCi/mmol), glycosyl donor (3 mM of UDPG or UDPX), MgCl2 (0.05M) and ATP (0.5 mM) in 1 mM Tris, pH 8.0 were incubated with a specified amount of the recombinant protein at 27° C. […] The supernatant was concentrated to 100 μl in vacuo (Speed Vac Concentrator, Savant) and analyzed by HPLC using a reversed phase C18column.
(§2) The aqueous buffer consisted of 0.2M acetic acid adjusted to pH 3.5 with TEA. Samples were eluted with a linear gradient of methanol (5-50% over 90 minutes) in TEA buffer. The flow rate was 1 mL/min. and 0.5 mL fractions were collected. […] Radioactivity in these fractions was determined in Ready-Gel scintillation fluid (Beckman) with a Beckman LS 7000 scintillation counter.

[2] = biological target: T2, Recombinant Protein Encoded by the ORF of Zeatin O-xylosyltranferase (Phaseolus vulgaris, UniProt P56725); experiment: Cytokinin conversion assay with recombinant protein encoded by the ORF of zeatin O-xylosyltransferase (radio-labeled cytokinin + glycosyl donor, HPLC); assay type: biochemical, Phaseolous vulgaris; conditions: for Substrate Left (%) / Substrate Left CPM / Product (%) / Product CPM: 125 μl protein from culture supernatant, 4 hrs
T2 construct: the ORF of the gene was excised from the pGem-T vector (Promega) using the restriction enzymes Not1 and Sal1; made in house; host or cells: E. coli BL21(DE3) pLysS
T2 sequence (P56725 1-454): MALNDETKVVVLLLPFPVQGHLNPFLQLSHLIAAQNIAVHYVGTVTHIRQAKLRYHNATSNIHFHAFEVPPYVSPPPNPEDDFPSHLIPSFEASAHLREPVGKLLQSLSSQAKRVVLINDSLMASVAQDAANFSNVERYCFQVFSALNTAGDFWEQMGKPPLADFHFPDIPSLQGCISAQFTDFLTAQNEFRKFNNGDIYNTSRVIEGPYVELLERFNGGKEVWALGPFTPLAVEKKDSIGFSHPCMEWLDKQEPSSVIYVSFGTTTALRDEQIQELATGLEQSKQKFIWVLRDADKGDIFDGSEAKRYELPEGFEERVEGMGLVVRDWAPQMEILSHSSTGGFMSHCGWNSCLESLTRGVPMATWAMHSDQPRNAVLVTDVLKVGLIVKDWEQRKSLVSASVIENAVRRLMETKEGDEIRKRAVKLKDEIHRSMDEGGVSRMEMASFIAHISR
Excerpt: Isolation of recombinant zeatin O-xylosyltransferase proteins. Zeatin O-xylosyltransferase protein was purified using the same techniques as described above. Briefly, the coding sequences were ligated into an IPTG inducible plasmid which was transformed into Epicurian Coli BL21(DE3) pLysS Competent cells (Stratagene, LaJolla, Calif.). IPTG was then used to induce protein. Cells were subsequently lysed and the protein was separated out through the use of ion exchange chromatography.
as §1, §2
Isolation and authentication of zeatin O-xylosyltransferase cDNA clones. To assess the enzyme activity of the protein encoded by zeatin O-xylosyltransferase, the ORF of the gene was excised from the pGem-T vector (Promega) using the restriction enzymes Not1 and Sal1. The resulting fragment was then ligated into the Not1/Sal1 site of the pZipLox plasmid.

[3] = glycosyl donor UDPG, A: 200 μl supernatant from lysed cells, approx. 1 nmole 14C-labeled zeatin, 2 hr
[4] = glycosyl donor UDPG, B: DEAE-purified proteins (4 μg), approx. 0.5 nmole 14C-cytokinin
[5] = glycosyl donor UDPX, A: 200 μl supernatant from lysed cells, approx. 1 nmole 14C-labeled zeatin, 2 hr

SMILES	Product (%) [1, 4] [%]	Product CPM [1, 4] [CPM]	Substrate Left (%) [1, 4] [%]	Substrate Left CPM [1, 4] [CPM]	Product (%) ([2]; glycosyl donor UDPX)	Product CPM ([2]; glycosyl donor UDPX) [CPM]	Substrate Left (%) ([2]; glycosyl donor UDPX)	Substrate Left CPM ([2]; glycosyl donor UDPX) [CPM]	other results
C/C(=C\CNc1ncnc2[nH]cnc12)CO [Z, trans-zeatin]	14	3731	86	23115	82	35838	18	7768	Product (%) [1, 3]: 100%; Product CPM [1, 3]: 39715 CPM; Substrate Left (%) [1, 3]: 0 (0%); Substrate Left CPM [1, 3]: 0 (0%) CPM; Conversion to O-glucosylzeatin (in words) ([1]; glycosyl donor UDPG, supernatant with recombinant protein, listed as 14C-zeatin): efficiently converted; Product (%) [1, 5]: 18%; Product CPM [1, 5]: 4956 CPM; Substrate Left (%) [1, 5]: 82%; Substrate Left CPM [1, 5]: 23078 CPM; Conversion of zeatin (in words) ([2]; UDPG as the sugar donor): no detectable conversion; Substrate Left (%) ([2]; glycosyl donor UDPG): 100%; Substrate Left CPM ([2]; glycosyl donor UDPG): 41679 CPM
C/C(=C/CNc1ncnc2nc[nH]c12)CO [cis-Z, Cis-zeatin]							100	29460	
CC(CO)CCNc1ncnc2nc[nH]c12 (stereo not drawn) [DHZ, dihydrozeatin]	1	329	99	24178	78	33237	22	9244	Formation of O-glucosyldihydrozeatin (in words) ([1]; DEAE-column purified recombinant protein): trace
C/C(=C\CNc1ncnc2c1ncn2[C@@H]1O[C@H](CO)[C@@H](O)[C@H]1O)CO [RZ, ribosylzeatin]							100	39238	
